# US20220362299A1, “ENGINEERED NATURAL KILLER CELLS AND METHODS FOR USING THE SAME IN IMMUNOTHERAPY AND AUTOPHAGY INHIBITON TECHNIQUES” (Purdue Research Foundation, priority 2019, published 2022)
# T1: CD73 (ecto-5'-nucleotidase, NT5E) on patient-derived GBM43 glioblastoma cells (human, UniProt P21589 27-549)
# T1 construct: whole, on cells; Endogenous surface CD73 of human patient-derived GBM43 cells, in culture or as xenograft tumors
# T1 sequence (looked up): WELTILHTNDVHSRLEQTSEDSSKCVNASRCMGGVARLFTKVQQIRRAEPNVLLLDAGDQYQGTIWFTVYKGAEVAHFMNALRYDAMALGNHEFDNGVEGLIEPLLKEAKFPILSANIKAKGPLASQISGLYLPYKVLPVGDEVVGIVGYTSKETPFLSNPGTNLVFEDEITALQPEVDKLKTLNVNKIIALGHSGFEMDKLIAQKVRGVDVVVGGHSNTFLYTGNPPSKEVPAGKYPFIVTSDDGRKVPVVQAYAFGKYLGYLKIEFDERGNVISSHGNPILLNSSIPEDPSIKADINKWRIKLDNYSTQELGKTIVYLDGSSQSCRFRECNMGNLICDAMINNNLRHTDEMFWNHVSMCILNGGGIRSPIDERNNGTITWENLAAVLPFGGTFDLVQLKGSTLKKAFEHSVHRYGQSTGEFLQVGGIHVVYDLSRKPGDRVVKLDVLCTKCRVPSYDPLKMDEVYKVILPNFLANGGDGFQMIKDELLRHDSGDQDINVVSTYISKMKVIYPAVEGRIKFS
# B1: CCL5: Recombinant human RANTES (CCL5) (protein, UniProt P13501 24-91, looked up)
# C-C motif chemokine 5: SPYSSDTTPCCFAYIARPLPRAHIKEYFYTSGKCSNPAVVFVTRKNRQVCANPEKKWVREYINSLEMS
# B2: anti-CD73 scFv cleaved by uPA or tumor-associated proteases from Construct 1 (CD73.mCAR) on engineered NK cells (scFv)
# scFv: EVQLLESGGGLVQPGGSLRLSCAASGFTFSSYAYSWVRQAPGKGLEWVSAISGSGGRTYYADSVKGRFTISRDNSKNTLYLQMNSLRAEDTAVYYCARLGYGRVDEWGRGTLVTVSSGGGGSGGGGSGGGGSQSVLTQPPSASGTPGQRVTISCSGSLSNIGRNPVNWYQQLPGTAPKLLIYLDNLRLSGVPDRFSGSKSGTSASLAISGLQSEDEADYYCATWDDSHPGWTFGGGTKLTVLGGGGSGGGGSGGGGS
# notes: Soluble fragment released from CD73.mCAR-NK92 or CD73.mCAR-pNK cells, by 100 nM uPA in vitro or by tumor proteases in vivo; also called αCD73 scFv; aCD73 scFv; not shown: the cleavage site is
# B3: anti-CD73 scFv: CD73-blocking single chain antibody fragment released from the CAR by uPA / tumor-associated protease cleavage (protein)
# scFv: EVQLLESGGGLVQPGGSLRLSCAASGFTFSSYAYSWVRQAPGKGLEWVSAISGSGGRTYYADSVKGRFTISRDNSKNTLYLQMNSLRAEDTAVYYCARLGYGRVDEWGRGTLVTVSSGGGGSGGGGSGGGGSQSVLTQPPSASGTPGQRVTISCSGSLSNIGRNPVNWYQQLPGTAPKLLIYLDNLRLSGVPDRFSGSKSGTSASLAISGLQSEDEADYYCATWDDSHPGWTFGGGTKLTVLGGGGSGGGGSGGGGS
# modifications: left off: small tags and cut ends
# How the values were obtained:
# GBM43 cells = assay: ELISA of CCL5 and CXCL10 in supernatant of GBM43 cells; assay type: cell-based, human; conditions: with CQ 50 μM, 24 h
# Source text: To evaluate changes in the protein levels of these chemokines and gain more insight into the underlying molecular mechanisms, chemokine concentrations were quantified in the conditioned media of CQ-treated GBM43 cells using ELISA in absence and presence of various pharmacological inhibitors driving signaling pathways for these chemokines. This included the PI3K inhibitor LY294002, NF-κB inhibitor BAY11-7082 and JNK inhibitor SP600125.
# More specifically, to measure secreted CCL5 and CXCL10, GBM43 cells were treated with CQ at a final concentration of 50 μM in presence or absence of various small molecule inhibitors, including LY294002, BAY11-7082 and SP600125 for 24 hours. Supernatants were collected and the levels of CCL5 and CXCL10 were quantified using Human CCL5 and CXCL10 Biolegend-ELISA MAX™ Deluxe Sets according to the manufacturer's directions. To look at the levels of multiple chemokines secretion from GBM43 cells, the cell culture supernatants were also collected and all the selected targets were determined with the chemokine array provided by Eve Technologies (Calgary, Canada).
# pNK cells [1] = assay: Transwell BBB migration assay of pNK cells; assay type: cell-based, human; conditions: 100 ng/mL in lower chamber, 6 hours
# Procedure: To determine involvement of CCL5 and CXCL10 in the migration of NK cells, the migration of activated pNK cells toward CCL5 and CXCL10 gradients was then tracked using an in vitro BBB model setup by a direct contact co-culture of primary human astrocytes and […] human cerebral microvessel endothelial cells (FIG. 12, subpart G).
# An in vitro direct contact co-culture blood-brain barrier (BBB) model was established as previously described^53. Briefly, human astrocytes were seeded at a density of 4×10^4 cells/cm^2 into 24-well Transwell® inserts (pore size 5 μm) pre-coated with 2 μg/cm^2 poly-L-lysine and allowed to proliferate/differentiate for 48 hours in media. Media was then removed and the hCMEC/D3 cells suspended into EBM-2 media were seeded at a density of 1×10^5 cells/cm^2.
# The co-culture was grown in EBM-2 with media changes every other day for an additional 7 days before studies were conducted. 600 μL of RPMI1640 medium supplemented with 1% FBS containing recombinant CCL5 or CXCL10 at 100 ng/mL was placed in the lower chamber of the Transwell® plate. Activated pNK cells (5×10^5) in 100 μL RPM11640 medium supplemented with 1% FBS were placed into the upper chamber (5-μm pore size). After incubation for 6 hours at 37° C. and 5% CO2, the number of pNK cells that migrated into the lower chamber was determined by flow cytometry. […]
# pNK cells [2] = assay: Effect of adenosine on pNK cell viability (CCK-8) and NKG2D expression (flow cytometry); assay type: cell-based, human; conditions: 1000 μM adenosine, 24 h
# Procedure: To verify this, pNK cells were seeded into a 24-well plate at a density of 5×10^5 cells/well in 500 μL medium. Adenosine was then added to a final concentration of 1000 μM. After 24 h, the cells were collected and their viability (%) was determined via a CCK-8 assay (subpart A of FIG. 2). The NKG2D expression (% and MFI) was determined by flow cytometry (subpart B of FIG. 2). […] These findings support that there is a need to increase NKG2D expression on NK cells through engineering.
# [3] = biological target: T1, CD73 (ecto-5'-nucleotidase, NT5E) on …; assay: immunofluorescence (Protein L) on sections of subcutaneous GBM43 xenograft tumors
# CD73 = CD73 activity of GBM43 cells (AMP hydrolysis, malachite green phosphate assay); assay type: cell-based, human
# Procedure: To test for CD73 activity and its ability to generate adenosine, GBM43 cells were seeded at 2×10^4 cells per well in a 96-well plate in complete DMEM. After overnight incubation, GBM43 cells were incubated with anti-CD73 scFv following uPA (100 nM)-mediated cleavage from either CD73.mCAR-NK92 or CD73.mCAR-pNK cells during incubation for 6 hours. Then, the cell medium was removed and cells were rinsed three times with phosphate-free buffer (117 mM NaCl, 5.3 mM KCl, 1.8 mM MgCl2, 26 mM NaHCO3, 10 mM glucose, pH 7.4, diluted in ddH2O). AMP (250 μM final), diluted in phosphate-free buffer, was added and incubated for 10 min at 37° C. Finally, the phosphate (Pi) concentrations resulting from AMP hydrolysis were measured using a malachite green phosphate assay kit following the manufacturer's instructions.
molecule,measurement,setting,value
Cc1ccc(S(=O)(=O)/C=C/C#N)cc1 [BAY11-7082],inhibition of the CQ-elevated production of CCL5 and CXCL10,GBM43 cells,significantly inhibited
CXCL10: Recombinant human CXCL10,migration of activated pNK cells along ligand gradient across in vitro BBB,pNK cells [1],significantly increased
Nc1ncnc2c1ncn2[C@@H]1O[C@H](CO)[C@@H](O)[C@H]1O [adenosine],cell viability of pNK cells,pNK cells [2]; CCK-8,clear negative affect
same,NKG2D expression on pNK cells,pNK cells [2]; flow cytometry,decreased
B1,migration of activated pNK cells along ligand gradient across in vitro BBB,pNK cells [1],significantly increased
B2,binding result,[3],binds
B3,production of extracellular adenosine by GBM43 cells (CD73 activity),CD73; scFv cleaved by uPA from CD73.mCAR-NK92 cells,significantly decreased production
same,ability of GBM43 cells to produce adenosine (CD73 activity),CD73; scFv cleaved from CD73.mCAR-pNK cells,significantly reduced ability to produce adenosine
